# How the values were obtained:
# [1] = test system: BaF3; assay: Proliferation of BaF3 cells, CCK8 cell viability assay; format: cell-based; settings: Mus musculus, 72 hours
# In short: (§1)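 Mouse BaF3 ± TEL-kinase fusion (human cKIT/PDGFRα/PDGFRβ kinase region, MSCV-Puro retrovirus, IL-3 removed → kinase-addicted). Viability by CCK8 (dehydrogenase), GI50 μM.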
# [2] = test system: P210-BaF3; assay: Proliferation of P210-BaF3 cells, CCK8 cell viability assay; format: cell-based; settings: Mus musculus, 72 hours, stably expressing BCR-ABL mutant activated kinase
# In short: (§2)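 Human kinase-region sequences were PCR-amplified, fused behind N-terminal TEL in MSCV-Puro and stably introduced into mouse BaF3 by retrovirus. IL-3 was then removed to give kinase-dependent lines. Compound effects on these and on parental BaF3 are scored as GI50 (μM) via CCK8 viable-cell quantification.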
# [3] = test system: P210/T315I-BaF3; assay: Proliferation of P210/T315I-BaF3 cells, CCK8 cell viability assay; format: cell-based; settings: Mus musculus, 72 hours, stably expressing BCR-ABL/T315I
# In short: as §2
# [4] = test system: Tel-cKit-BaF3; assay: Proliferation of Tel-cKit-BaF3 cells, CCK8 cell viability assay; format: cell-based, mouse; settings: Mus musculus; 72 hours, CCK8; stably expressing cKIT kinase
# In short: as §1
# [5] = test system: Tel-cKit/T670I-BaF3; assay: Proliferation of Tel-cKit/T670I-BaF3 cells, CCK8 cell viability assay; format: cell-based; settings: Mus musculus, 72 hours, stably expressing cKIT/T670I
# In short: as §1
# [6] = test system: Tel-FLT3-BaF3; assay: Proliferation of Tel-FLT3-BaF3 cells, CCK8 cell viability assay; format: cell-based; settings: Mus musculus, 72 hours, stably expressing FLT3 kinase
# In short: as §2
# [7] = test system: FLT3-ITD-BaF3; assay: Proliferation of FLT3-ITD-BaF3 cells, CCK8 cell viability assay; format: cell-based; settings: Mus musculus, 72 hours, stably expressing FLT3/ITD
# In short: as §2
# [8] = test system: Tel-RET-BaF3; assay: Proliferation of Tel-RET-BaF3 cells, CCK8 cell viability assay; format: cell-based; settings: Mus musculus, 72 hours, stably expressing RET kinase
# [9] = test system: TEL-PDGFRα-BaF3; assay: Proliferation of TEL-PDGFRα-BaF3 cells, CCK8 cell viability assay; format: cell-based; settings: Mus musculus, 72 hours, stably expressing PDGFRα kinase
# In short: as §1
# [10] = test system: TEL-PDGFRβ-BaF3; assay: Proliferation of TEL-PDGFRβ-BaF3 cells, CCK8 cell viability assay; format: cell-based; settings: Mus musculus, 72 hours, stably expressing PDGFRβ kinase
# In short: as §1
# [11] = test system: TEL-VEGFR2-BaF3; assay: Proliferation of TEL-VEGFR2-BaF3 cells, CCK8 cell viability assay; format: cell-based; settings: Mus musculus, 72 hours, stably expressing VEGFR2 kinase
# In short: as §2
# [12] = test system: human acute myeloid leukemia cell strain MOLM-13; assay: Proliferation of MOLM-13 cells, Cell Titer-Glo; format: cell-based; settings: summary of Table 3
# Description: (§3) In addition, in this example the inhibitory activity of preferred compounds (Compound 5 and Compound 135) was tested against the following cell strains: human acute myeloid leukemia cell strain MV4-11 (expressing FLT3/ITD mutant gene), human acute myeloid leukemia cell strain MOLM-13 (expressing FLT3/ITD mutant gene and wild-type FLT3 gene), human acute myeloid leukemia cell strain MOLM-14 (expressing FLT3/ITD mutant gene and wild-type FLT3 gene), human acute myeloid leukemia cell strain OCI-AML-3 (expressing FLT3 A680V mutant gene), human chronic lymphatic leukemia cell strain MEC-1, Chinese hamster lung (CHL) cells, Chinese hamster ovary (CHO) cells, wherein all the cells were purchased from ATCC. In the example the compounds of the present invention were added respectively into the above cells at different concentrations (0.000508 μM, 0.00152 μM, 0.00457 μM, 0.0137 μM, 0.0411 μM, 0.123 μM, 0.370 μM, 1.11 μM, 3.33 μM, 10 μM in DMSO) and the cells were incubated for 72 hours. The number of viable cells was determined by quantification of ATP in living cells using Cell Titer-Glo® (Promega, the USA) Luminescent Cell Viability Assay kit and thereby GI50 was calculated.
# [13] = test system: human acute myeloid leukemia cell strain MV4-11; assay: Proliferation of MV4-11 cells, Cell Titer-Glo; format: cell-based; settings: summary of Table 3
# Description: as §3
# [14] = test system: human acute myeloid leukemia cell strain MOLM-14; assay: Proliferation of MOLM-14 cells, Cell Titer-Glo; format: cell-based; settings: summary of Table 3
# Description: as §3
GI50 [1] [nM],GI50 [2] [nM],GI50 [3] [nM],GI50 [4] [nM],GI50 [5] [nM],GI50 [6] [nM],GI50 [7] [nM],GI50 [8] [nM],GI50 [9] [nM],GI50 [10] [nM],GI50 [11] [nM],Structure (SMILES),inhibition of MOLM13 (in words) [12],inhibition of MV4-11 (in words) [13],inhibition of MOLM14 (in words) [14]
> 10000,> 10000,> 10000,8680,> 10000,436,77,> 10000,74,180,1240,"CC(=O)Nc1cc(Oc2ccc(NC(=O)Cc3ccccc3Cl)cc2)ncn1 [Example 26, N-[4-(6-acetylamino-pyrimidin-4-yloxy)-phenyl]-2-(2-chloro-phenyl)-acetamide]",,,
> 10000,> 10000,> 10000,855,9220,814,206,> 10000,5,7,2580,"CC(C)C(=O)Nc1cc(Oc2ccc(NC(=O)Cc3cccc(C(F)(F)F)c3)cc2)ncn1 [Example 50, N-(6-{4-[2-(3-trifluoromethyl-phenyl)-acetylamino]-phenoxy}-pyrimidin-4-yl)-isobutyramide]",,,
> 10000,> 10000,1040,> 10000,> 10000,1150,263,> 10000,33,73,2110,"CC(=O)Nc1cc(Oc2ccc(NC(=O)Cc3ccccc3F)cc2)ncn1 [Example 25, N-[4-(6-acetylamino-pyrimidin-4-yloxy)-phenyl]-2-(2-fluoro-phenyl)-acetamide]",,,
> 10000,> 10000,> 10000,2130,8640,649,204,672,20,29,229,"CC(=O)Nc1cc(Oc2ccc(NC(=O)Cc3cccc(Oc4ccccc4)c3)cc2)ncn1 [Example 12, N-[4-(6-acetylamino-pyrimidin-4-yloxy)-phenyl]-2-(3-phenoxy-phenyl)-acetamide]",,,
> 10000,> 10000,> 10000,3210,> 10000,236,67,> 10000,35,70,518,"CC(=O)Nc1cc(Oc2ccc(NC(=O)Cc3cc(C)ccc3C)cc2)ncn1 [Example 7, N-[4-(6-acetylamino-pyrimidin-4-yloxy)-phenyl]-2-(2,5-dimethyl-phenyl)-acetamide]",,,
> 10000,> 10000,> 10000,6890,> 10000,616,99,> 10000,4,33,566,"CC(=O)Nc1cc(Oc2ccc(NC(=O)Cc3cccc(Br)c3)cc2)ncn1 [Example 13, N-[4-(6-acetylamino-pyrimidin-4-yloxy)-phenyl]-2-(3-bromo-phenyl)-acetamide]",,,

# The remaining lines, values behind:
Structure (SMILES),GI50 [1] [nM],GI50 [2] [nM],GI50 [3] [nM],GI50 [4] [nM],GI50 [5] [nM],GI50 [6] [nM],GI50 [7] [nM],GI50 [8] [nM],GI50 [9] [nM],GI50 [10] [nM],GI50 [11] [nM],inhibition of MOLM13 (in words) [12],inhibition of MV4-11 (in words) [13],inhibition of MOLM14 (in words) [14]
"CCCCC(=O)Nc1cc(Oc2ccc(NC(=O)Cc3ccccc3C(F)(F)F)cc2)ncn1 [Example 55, N-(6-{4-[2-(2-trifluoromethyl-phenyl)-acetylamino]-phenoxy}-pyrimidin-4-yl)-valeramide]",> 10000,> 10000,> 10000,4600,6300,650,140,7900,38,61,3900,,,
"Cc1ccc(NC(=O)Nc2ccc(Oc3cc(N[C@@H](C)C(=O)O)ncn3)cc2)cc1C(F)(F)F [Example 126, (6-(4-(3-(4-methyl-3-(trifluoromethyl)phenyl)ureido)phenoxy)pyrimidin-4-yl)-L-aminopropionic Acid]",> 10000,> 10000,> 10000,1660,4680,797,153,6380,140,490,410,,,
"CC(=O)Nc1cc(Oc2ccc(NC(=O)C(O)c3ccc(Br)cc3)cc2)ncn1 (stereo not drawn) [Example 14, N-[4-(6-acetylamino-pyrimidin-4-yloxy)-phenyl]-2-(4-bromo-phenyl)-2-hydroxy-acetamide]",> 10000,> 10000,> 10000,> 10000,> 10000,713,284,> 10000,89,341,1240,,,
"COCCNc1cc(Oc2ccc(NC(=O)Nc3ccc(CN4CCN(C)CC4)cc3)cc2)ncn1 [Example 172, 1-{4-[6-(2-methoxy-ethylamino)-pyrimidin-4-yloxy]-phenyl}-3-[4-(4-methyl-piperazin-1-ylmethyl)-phenyl]-urea]",> 10000,> 10000,> 10000,> 10000,> 10000,1100,340,> 10000,110,750,8300,,,
"Cc1ccc(NC(=O)N[C@H]2CC[C@H](Oc3cc(NCCN)ncn3)CC2)cc1C(F)(F)F [Example 46, 1-((1R,4R)-4-((6-((2-aminoethyl)amino)pyrimidin-4-yl)oxy)cyclohexyl)-3-(4-methyl-3-(trifluoromethyl)phenyl)urea]",7880,> 10000,9170,5100,765,228,87,4030,24,248,3030,,,
"COCCNc1cc(OC2CCC(NC(=O)Nc3ccc(C)c(C(F)(F)F)c3)CC2)ncn1 (stereo not drawn) [Example 41, 1-{4-[6-(2-methoxy-ethylamino)-pyrimidin-4-yloxy]-cyclohexyl}-3-(4-methyl-3-trifluoromethyl-phenyl)-urea]",7800,4430,4690,5120,707,263,109,3180,59,233,2900,,,
"Cc1ccc(NC(=O)N[C@H]2CC[C@H](Oc3cc(NCCO)ncn3)CC2)cc1C(F)(F)F [Example 42, 1-((1R,4R)-4-((6-((2-hydroxyethyl)amino)pyrimidin-4-yl)oxy)cyclohexyl)-3-(4-methyl-3-(trifluoromethyl)phenyl)urea]",5500,5380,4110,5180,3910,198,274,3590,94,96,3770,,,
"CC(=O)Nc1cc(Oc2ccc(NC(=O)Cc3ccc(C(F)(F)F)cc3C(F)(F)F)cc2)ncn1 [Example 3, N-[4-(6-acetylamino-pyrimidin-4-yloxy)-phenyl]-2-(2,4-bis-trifluoromethyl-phenyl)-acetamide]",> 10000,,,1420,8900,325,109,,7,22,1090,selectively and strongly inhibited,selectively and strongly inhibited,selectively and strongly inhibited
"Cc1ccc(NC(=O)NC2CCC(Oc3cc(NCCO)ncn3)CC2)cc1C(F)(F)F (stereo not drawn) [Example 40, 1-{4-[6-(2-hydroxy-ethylamino)-pyrimidin-4-yloxy]-cyclohexyl}-3-(4-methyl-3-trifluoromethyl-phenyl)-urea]",5060,5360,3930,5190,2400,580,168,4180,21,330,5090,,,

# — patent US11602534B2, “Pyrimidine derivative kinase inhibitors” (HEFEI INSTITUTES OF PHYSICAL SCIENCE, CHINESE ACADEMY OF …, priority 2017, dated 2023)
